Tests used:
TNBC [1] = conditions: with nab-paclitaxel; cited from earlier work
TNBC [2] = conditions: plus chemotherapy arm; cited from earlier work
BR-0001 TNBC = experiment: BR-0001 AR-positive TNBC xenograft in NSG mice; format: in vivo; conditions: 10 mg/kg/day Formula IX or enzalutamide orally
Experimental: Xenograft experiment. NSG mice obtained from JAX labs were housed with five animals per cage and were allowed free access to tap water and commercial rat chow (Harlan Teklad 22/5 rodent diet—8640). During the course of the study, the animals were maintained on a 12 hr light:dark cycle. Animals were anesthetized and BR-0001 TNBC fragments of 1 mm^3 (approximately) were implanted subcutaneously in NSG mice. […] Tumor volume was measured thrice weekly. Tumor volume was calculated using the formula length×width×width×0.5236. Once tumors reached greater than 1500-2000 mm^3, animals were sacrificed and tumors weighted and stored for various analysis. Two regions of the same BR-0001 tumor, an AR-positive TNBC xenograft, were immunohistochemically stained with AR antibody (AR N20 from SCBT) (FIGS. 26A and 26B) and compared to an AR-negative (FIG. 26C) TNBC as a negative control. […] The tumor xenograft efficacy experimental results are provided in 27A-27C, with FIGS. 27A and 27B being replicate experiments.
Tumors from replicate experiment 2 (FIG. 27B) were fixed in formalin and paraffin embedded. Slides were cut and stained with Ki-67 antibody. Ki-67 positive cells (total 200 cells were counted in each slide) in each slide were counted and represented as % stained cells, as shown in FIG. 28B.

HCI-7 PDX = experiment: HCI-7 (HCI-007) patient-derived xenograft in NSG mice; format: in vivo; conditions: Formula IX 10 mg/kg, enzalutamide 20 mg/kg, orally, vs vehicle
Experimental: HCI-007 tumor pieces (1 mm^3) were implanted surgically (one per mouse) under the skin on the flanks of NSG mice. Simultaneously, 17β-estradiol pellet (Innovative Research of America) was implanted surgically under the skin of each mouse. Tumors were allowed to grow and reach approximately 100 mm^3 volume (1*W*W*0.526). […] Tumor volume was measured weekly and represented as % change in tumor volume (FIG. 32). Mice were sacrificed and tumors stored for further analysis.
(§1) All animal protocols were approved by The University of Tennessee Health Science Center (UTHSC) Institutional Animal Care and Use Research Committee. Xenograft experiments were performed as previously published (Narayanan et al. (2014) PLoS One 9, e103202). Briefly, 3 million MCF-7 cells were suspended in 0.05 ml MEM+10% FBS and 0.05 ml Matrigel/nude mouse and were injected subcutaneously. Once the tumor size reached 100-200 mm^3, the animals were randomized and treated orally with the indicated drugs formulated in DMSO:PEG-300 (15:85). HCI-7, HCI-9, and HCI-13 PDXs were gifts kindly donated by Dr. Alana Welm (Huntsman Cancer Institute, Salt Lake City, Utah). HCI PDX tumor fragments (1 mm^3) were surgically implanted under the mammary fat pad in female NOD SCID Gamma (NSG) mice. Tumor volume was measured twice weekly for MCF-7 xenograft and once or twice weekly for HCI PDXs. At the end of the study, animals were sacrificed and tumors were excised, weighed, and stored for various analyses.
From the several PDXs available, three AR-positive PDXs were identified, based on gene expression profile. […] The enzalutamide dose was selected based on previous published experiments (Park et al. (2016) Cancer Invest 34, 517-520; Pollock et al. (2016) Nat Chem Biol 12, 795-801) as well as from internal experiments conducted in prostate cancer xenografts and in Hershberger studies.

HCI-9 PDX = experiment: HCI-9 patient-derived xenograft in NSG mice; format: in vivo; conditions: Formula IX 10 mpk, enzalutamide 30 mpk p.o.
Experimental: as §1
To determine if the same effect is observed in an AR-positive, but ER-negative breast cancer, HCI-9 tumor fragments were implanted under the mammary fat pad of NSG mice.

MCF-7-GFP cells = format: cell-based, human; conditions: 10 days
Description: Tumor microenvironment contains tumor epithelial cells, stromal cells, cancer-associated fibroblasts (CAFs), and endothelial cells. The collective function of these cells promotes the aggressive growth of tumors due to secretion of paracrine factors. The CAFs are important for the sustained growth of cancers, and they differ from normal fibroblasts in their capacity to secrete factors that promote proliferation of cancer cells. […] Medium was collected over a period of 10 days and pooled. CAFs were stained with SRB to evaluate the effect of AR ligands on proliferation.
Conditioned medium was replaced on days 4 and 7 and the cells were stained with SRB to measure viability.

Wildtype ER-α = Wildtype ER-α (Homo sapiens, UniProt P03372); conditions: 10 nM fulvestrant or 1 μM tamoxifen with 0.1 nM estradiol
Chain of Wildtype ER-α (P03372 whole entry, species assumed): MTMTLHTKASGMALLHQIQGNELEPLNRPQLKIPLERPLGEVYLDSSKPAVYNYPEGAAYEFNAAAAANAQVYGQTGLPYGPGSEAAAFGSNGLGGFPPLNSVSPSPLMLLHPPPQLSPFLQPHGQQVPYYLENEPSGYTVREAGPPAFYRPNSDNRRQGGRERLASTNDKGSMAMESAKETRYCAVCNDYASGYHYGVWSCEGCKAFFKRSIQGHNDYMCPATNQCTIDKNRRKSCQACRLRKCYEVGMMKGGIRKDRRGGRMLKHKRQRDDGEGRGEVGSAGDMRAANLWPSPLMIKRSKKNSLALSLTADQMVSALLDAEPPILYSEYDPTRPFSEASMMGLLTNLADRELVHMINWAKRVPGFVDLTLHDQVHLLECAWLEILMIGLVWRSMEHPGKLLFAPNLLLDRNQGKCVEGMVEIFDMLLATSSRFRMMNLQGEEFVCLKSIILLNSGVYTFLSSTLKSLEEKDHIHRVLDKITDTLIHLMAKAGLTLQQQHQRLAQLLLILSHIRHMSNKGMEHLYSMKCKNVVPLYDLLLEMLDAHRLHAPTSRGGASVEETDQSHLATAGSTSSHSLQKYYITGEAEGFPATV
Experimental: (§2) After 6 days of treatment, cells were harvested, and the number of cells was counted. […] Medium was changed after 3 days and re-treated. Cells were fixed after 6 days of treatment and the cell viability was measured by SRB assay. […] Medium was changed, and the cells were re-treated on days 4 and 7. Medium was collected, pooled from triplicates, and stored in −80° C. After 10 days of treatment, cells were fixed, and cell viability was measured using SRB. MCF-7 cells stably transfected with GFP (MCF-7-GFP) were plated in growth medium. Twenty-four hours after plating, cells were fed with the conditioned medium obtained from patient-derived fibroblasts as indicated above. Cells were fed for 10 days with conditioned medium, with medium changed on days 4 and 7. After 10 days of treatment, cells were fixed, and the viability was measured by SRB assay. […] AR-positive, but ER-negative HCI-9 PDX was surgically implanted as 1 mm^3 fragments under the mammary fat pad in NSG mice (n=8-10/group). […] Tumor volume was measured thrice weekly. […] ER-α from HCI-13 was cloned into pCR3.1 vector. Wildtype ER-α and HCI-13 ER-α, ERE-LUC, and CMV-LUC were transfected into COS-1 cells using lipofectamine. […] Twenty four hours after treatment cells were harvested and luciferase assay was performed. […] Values are expressed as average±S.E. from n=3-4/data point.

HCI-13 ER-α = HCI-13 ER-α (Homo sapiens, UniProt P03372, Y537S); conditions: 10 nM fulvestrant or 1 μM tamoxifen with 0.1 nM estradiol
Chain of HCI-13 ER-α (P03372 whole entry Y537S): as the sequence (P03372 whole entry, species assumed) above, with Y537S counted along it
Experimental: as §2

HCI-13 tumor fragments = experiment: HCI-13 ex vivo sponge culture, real time PCR; format: cell-based; conditions: 10 nM DHT, 1 μM Formula IX, 100 nM fulvestrant, 3 days
Experimental: (§3) HCI-13 tumors grown in female mice were allowed to reach 500-1000 mm^3 before the animals were sacrificed and the tumors were excised to be used for sponge culture. Patient specimens frozen in liquid nitrogen in freezing medium were used for sponge culture. […] Tumors were sliced into small pieces (˜1 mm^3) and incubated on pre-soaked gelatin sponges (5 fragments/sponge) in 12 well plates containing 1.5 mL medium (MEM+10% FBS+2 mM L-glutamine+10 μg/mL insulin+10 μg/mL hydrocortisone+penicillin:streptomycin). The cultures were performed in triplicates for HCI-13 and singly for patient specimens. Pooled samples (n=5/sponge) from each sponge constituted one sample. Tissues were harvested after 3 days of treatment, RNA extracted, and expression of various genes measured. Although the same procedure was adopted for specimens obtained from breast cancer patients, the specimens were cultured singly (n=5/sponge=one sample) and not in triplicates as performed for HCI-13.

[3] = test system: metastatic ER+/HER2- breast cancer; conditions: cited from earlier work
[4] = test system: breast cancer specimens obtained from patients; experiment: Breast cancer patient specimens, ex vivo sponge culture; format: cell-based, human; conditions: 1 μM Formula IX, 100 nM fulvestrant, 3 days
Experimental: Specimens from breast cancer patients were collected with patient consent under a protocol approved by the UTHSC Institutional Review Board (IRB). Specimens were collected immediately after surgery in RPMI medium containing penicillin:streptomycin and Fungizone and transported to the laboratory on ice. The tissues were finely minced and treated with collagenase for 2 hours.
as §3
Like other cancers, breast cancer is also heterogeneous in its genomic profile as well as in its response to treatments. […] Three days after treatment, RNA was isolated from the tissues and expression of ER- and AR-target genes was measured.

atezolizumab: PD-L1 blocking antibody
Median progression-free survival (PFS) (TNBC [1]): 7.4 months

pembrolizumab: PD-L1 blocking antibody
median PFS (TNBC [2]): 9.7 months

CNC(=O)c1ccc(N2C(=S)N(c3ccc(C#N)c(C(F)(F)F)c3)C(=O)C2(C)C)cc1F [enzalutamide, reference compound]
tumor growth (BR-0001 TNBC): indistinguishable from vehicle treatment
tumor growth (% change in tumor volume) (HCI-7 PDX): grew comparably
tumor growth trajectory (HCI-9 PDX): Neither Formula IX nor enzalutamide altered the growth trajectory
proliferation of breast cancer CAFs (MCF-7-GFP cells; 10 nM DHT, 1 μM Formula IX, 1 μM enzalutamide): neither AR agonist, DHT and Formula IX, nor AR antagonist enzalutamide, affected the proliferation
proliferation of MCF-7-GFP cells fed conditioned medium from treated CAFs (MCF-7-GFP cells): not

C[C@]12CC[C@@H]3c4ccc(O)cc4C[C@@H](CCCCCCCCC[S+]([O-])CCCC(F)(F)C(F)(F)F)[C@H]3[C@@H]1CC[C@@H]2O (stereo partly shown) [fulvestrant]
ER activity (Wildtype ER-α): inhibited
ER activity (HCI-13 ER-α): not inhibited
inhibition of ER-induced pS2 and PR gene expression (HCI-13 tumor fragments): ineffective
median PFS range ([3]; after failing one estrogen blocking therapy): 4.6-9.3 months
objective response rate ([3]; depending on the trial): 10.9%-21.3%
specimens in which ER function was inhibited [4]: 4 of 8

From patent US20220257552A1, “METHODS OF PRESCREENING AND TREATING BREAST CANCERS WITH SELECTIVE ANDROGEN RECEPTOR MODULATORS” (priority 2021, published 2022)
